In US20250134813A1, “COMPOUNDS, LIPSOMES, AND DRUG CARRIERS FOR DRUG DELIVERY” (priority 2023, published 2025):
Converted amounts (≈) assume the structure as drawn.

Experiments:
CHL cells = assay: Evaluation of cell toxicity (CCK8 cell viability); assay type: cell-based
Experimental: CHL cells are seeded in a 96-well culture plate at a density of 4000 cells per well and incubated overnight at 37° C. in a 5% CO2 incubator. The culture medium is then replaced with 100 μL of medium containing different concentrations of ALC-0315, SM-102, and compounds prepared according to embodiments 1 and 2 of the present invention (specific concentrations are shown in FIG. 1), and cells are further incubated for 48 hours. Subsequently, 10 μL of CCK8 solution is added to each well and incubated for an additional 4 hours in the cell culture incubator. After the incubation, the absorbance at 450 nm is measured using a microplate reader, and cell viability is calculated. The IC50 values are calculated using GraphPad Prism software (version 8.01).

[1] = test system: RBD of the wild-type Delta strain S protein; assay: Immunostimulatory efficacy of LNPs@Delta S-2P mRNA (serum antibody titers by ELISA); assay type: in vivo, Balb/c mice; settings: for GMT: i.m.
Fluc mRNA expression [2] = assay: In vivo expression of LNPs@Fluc mRNA via intramuscular injection (bioluminescence, IVIS); design: species or system BALB/c mouse; settings: 20 μg FLuc mRNA per mouse, 8 hours after administration, vs MC3, ALC-0315, SM-102
Experimental: (§1) Furthermore, the ability of LNPs@mRNA prepared using compounds of the present invention to deliver mRNA in vivo was investigated. The inventors chose firefly luciferase as the reporter gene to label mRNA, referred to as Fluc mRNA. Following the method outlined in Example 3, LNPs@Fluc mRNA were prepared using different ionizable lipids (Compound 8, MC3, ALC-0315, or SM-102), referred to as LNP@Fluc mRNA formulation, MC3@Fluc mRNA, ALC-0315@Fluc mRNA, and SM-102@Fluc mRNA, respectively. These formulations were administered via intravenous injection (Step 2.1 of this example) and intramuscular injection (Step 2.2 of this example) to investigate the ability of LNPs@mRNA formulations prepared using compounds of the present invention to express mRNA in vivo and the distribution of expression.
The formulations LNPs@Fluc mRNA (Compound 8), the positive control formulation MC3@Fluc mRNA, ALC-0315@Fluc mRNA, and SM-102@Fluc mRNA, abbreviated as follows, were prepared as described above.
(§2) Each formulation's mRNA concentration was adjusted to 0.1 mg/mL using PBS solution, and the osmolarity of each formulation was adjusted to isotonic. […] The bioluminescence intensity of the entire body of the live mice was measured using an IVIS instrument with an exposure time of 60 s. Total flux of each organ was calculated after imaging. […]

Fluc mRNA expression [3] = assay: In vivo expression of LNPs@Fluc mRNA via intravenous injection (organ bioluminescence, IVIS); design: species or system NIH mouse; settings: intravenous (tail vein), 10 μg FLuc mRNA per mouse, 6 hours after administration; vs MC3, ALC-0315, SM-102
Experimental: as §1, with “expression. […]” for “expression.”
as §2, with “0.05” for “0.1”, “The heart, liver, spleen, lungs, and kidneys were rapidly dissected, and the” for “The”, “each excised organ” for “the entire body of the live mice”

[4] = Table 3: 1 μg each time, two administrations 14 days apart, serum 28 days after the initial immunization
[5] = CHL cells, 48 hours incubation, CCK8, cell viability
[6] = Day 14, dose 0.1 μg, LNPs@Delta S-2P mRNA prepared with the lipid
[7] = Day 14, dose 1 μg, LNPs@Delta S-2P mRNA prepared with the lipid
[8] = Day 14, dose 5 μg, LNPs@Delta S-2P mRNA prepared with the lipid
[9] = Day 28, dose 0.1 μg, two administrations 14 days apart
[10] = Day 28, dose 1 μg, two administrations 14 days apart
[11] = Day 28, dose 5 μg, two administrations 14 days apart

SMILES | IC50 (CHL cells; CHL, 48 h) | GMT [1, 4] | further results
CCCCCCCCC(CCCCCCCC)CNC(=O)NCCCCCCN(CCCCO)CCCCCCNC(=O)NCC(CCCCCCCC)CCCCCCCC [Compound 17] | 174 µg/mL (≈ 198 µM) | 299,707.3 | –
CCCCCCCCC(CCCCCC)CNC(=O)NCCCCCCCCCN(CCCCO)CCCCCCCCCNC(=O)NCC(CCCCCC)CCCCCCCC (stereo not drawn) [Compound 12] | 195 µg/mL (≈ 215 µM) | 449,359.1 | –
CCCCCCCCC(CCCCCC)CNC(=O)NCCCCCCN(CCCO)CCCCCCNC(=O)NCC(CCCCCC)CCCCCCCC (stereo not drawn) [Compound 7] | 126 µg/mL (≈ 155 µM) | 341,832.9 | –
CCCCCCCCC(CCCCCC)CNC(=O)NCCCCCN(CCCCO)CCCCCNC(=O)NCC(CCCCCC)CCCCCCCC (stereo not drawn) [Compound 11] | 137 µg/mL (≈ 173 µM) | 473,681.3 | –
CCCCCCCCCCCOC(=O)CCCCCN(CCO)CCCCCCCC(=O)OC(CCCCCCCC)CCCCCCCC [SM-102, reference compound] | – | 81,274.9 | IC50 (CHL cells; [5]): 55.9 µg/mL (≈ 78.7 µM); GMT [1, 6]: 712.7; GMT [1, 7]: 2262.7; GMT [1, 8]: 18101.9; GMT [1, 9]: 18101.9; GMT [1, 10]: 81274.9; GMT [1, 11]: 325099.7
CCCCCCCCC(CCCCCC)CNC(=O)NCCCCCCN(CCCCCO)CCCCCCNC(=O)NCC(CCCCCC)CCCCCCCC (stereo not drawn) [Compound 9] | 152 µg/mL (≈ 182 µM) | 452,334.1 | –
CCCCCCCCC(CCCCCC)C(=O)OCCCCCCN(CCCCO)CCCCCCOC(=O)C(CCCCCC)CCCCCCCC (stereo not drawn) [ALC-0315, reference compound] | – | – | IC50 (CHL cells; [5]): 29.9 µg/mL (≈ 39 µM)
CCCCCCCCCCCCNC(=O)NCCCCCCN(CCCCO)CCCCCCNC(=O)NCC(CCCCCC)CCCCCCCC (stereo not drawn) [Compound 21] | 119 µg/mL (≈ 156 µM) | 208,203.5 | –
CCCCCCC(CCCCCC)CNC(=O)NCCCCCCN(CCCCO)CCCCCCNC(=O)NCC(CCCCCC)CCCCCC [Compound 16] | 134 µg/mL (≈ 174 µM) | 244,238.6 | –
CCCCCCCCC(CCCCCC)CNC(=O)NCCCCCCCCCCCCN(CCCCO)CCCCCCCCCCCCNC(=O)NCC(CCCCCC)CCCCCCCC (stereo not drawn) [Compound 13] | 136 µg/mL (≈ 137 µM) | 210,944.0 | –
CCCCCCCCC(CCCCCC)CNC(=O)NCCCCCCCCCCCCN(CCCCO)CCCCCCNC(=O)NCC(CCCCCC)CCCCCCCC (stereo not drawn) [Compound 15] | 147 µg/mL (≈ 162 µM) | 400,363.5 | –
CCCCCCCCC(CCCCCC)CNC(=O)NCCCCCCN(CCCCCCCO)CCCCCCNC(=O)NCC(CCCCCC)CCCCCCCC (stereo not drawn) [Compound 10] | 153 µg/mL (≈ 177 µM) | 299,812.1 | –
CCCCCCCCC(CCCCCC)CNC(=O)NCCCCCCN(CCCCO)CCCCCCNC(=O)NCC(CCCCCC)CCCCCCCC (stereo not drawn) [Compound 8] | 166 µg/mL (≈ 202 µM) | 325,099.7 | Compound 8 GMT/SM-102 GMT ([1]; Day 14, dose 0.1 μg): 6.3; GMT [1, 6]: 4525.5; Compound 8 GMT/SM-102 GMT ([1]; Day 14, dose 1 μg): 14.3; GMT [1, 7]: 32254.0; Compound 8 GMT/SM-102 GMT ([1]; Day 14, dose 5 μg): 4.5; GMT [1, 8]: 81274.9; Compound 8 GMT/SM-102 GMT ([1]; Day 28, dose 0.1 μg): 3.6; GMT [1, 9]: 64508.0; Compound 8 GMT/SM-102 GMT ([1]; Day 28, dose 1 μg): 4.0; GMT [1, 10]: 325099.7; Compound 8 GMT/SM-102 GMT ([1]; Day 28, dose 5 μg): 2.5; GMT [1, 11]: 819200.0; mRNA expression capability based on the total bioluminescence emitted (Fluc mRNA expression [2]): stronger mRNA expression capability compared to the three positive control materials; mRNA expression capability based on the total bioluminescence emitted (Fluc mRNA expression [3]): stronger mRNA expression capability compared to the three positive control materials
